The first series in a line: in vitro. The following applies: human, hela cells, % viability.
With `CCOc1cccc(N2C(=O)CC(N3CCC(C(N)=O)(N4CCCCC4)CC3)C2=O)c1` (centres unmarked) [CBK263562], the viability (in general, a read-out of living cells in per cent, often relative to untreated cells) at 28.5 h, 10 µM is 99%. The same measure, in the same setting: the same measure for `Cc1ccc(SCCNS(=O)(=O)c2ccc(C)cc2)cc1` [CBK263564]: 108%; for `Cc1ccc(S(=O)(=O)NCCSc2ccccn2)cc1[N+](=O)[O-]` [CBK263566]: 82.5%; for `Cc1ccc(S(=O)(=O)N(CC(O)CN2CCCCC2)c2ccccc2)cc1` (centres unmarked) [CBK263570]: 97.7%. Same read-out and setting: then `Cc1ccc(S(=O)(=O)N(CC(O)CN2C(=O)NC(C)(C)C2=O)c2ccccc2[N+](=O)[O-])cc1` (centres unmarked) [CBK263572], with 95.3%. On the same count and under the same terms, then `COc1cc(NC(=O)c2nn3c(c2Br)NC(c2cccs2)CC3C(F)(F)F)c(OC)cc1Cl` (centres unmarked) [CBK263573], with 93.1%; and `c1ccc(CN(Cc2ccccc2)Cn2c3ccccc3c3ccccc32)cc1` [CBK263575], with 93.6%; and `CC(=O)Nc1ccc(S(=O)(=O)NCCSc2ccccn2)cc1` [CBK263576], with 90.1%. `O=[N+]([O-])c1cc(C(F)(F)F)ccc1NCCNC(=S)Nc1ccc(Cl)cc1` [CBK263578]: the viability at 28.5 h, 10 µM is 92.9%.

As to `Cc1ccc(N(CC(O)CN2C(=O)NC(C)(C)C2=O)S(=O)(=O)c2ccccc2)cc1` (centres unmarked) [CBK263580], the viability at 28.5 h, 10 µM worked out at 99.2%.

Consider `COc1ccccc1N(CC(O)CN1C(=O)NC(C)(C)C1=O)S(=O)(=O)c1ccc(C)cc1` (centres unmarked) [CBK263581], for which the viability at 28.5 h, 10 µM was determined as 99.4%. Same read-out and setting: the same measure for `Oc1ccc2ccccc2c1Cc1c(O)ccc2ccccc12` [CBK263583]: 72.9%.

`O=C(NC(Nc1cccc(C(F)(F)F)c1)C(=O)c1ccccc1)c1ccc(Cl)cc1` (centres unmarked) [CBK263585]: the viability at 28.5 h, 10 µM was 89.5%. On the same count and under the same terms, the same measure for `[O-][n+]1c2c([n+]([O-])c3c1CCCC3)CCCCC2` [CBK263586]: 95.5%. The same measure, in the same setting: then `O=C(c1ccc(S(=O)(=O)N2CCCC2)cc1)N1CCN(C/C=C/c2ccccc2)CC1` [CBK263587], with 103%; and `O=C(NCc1ccc2c(c1)OCO2)c1ccc(S(=O)(=O)N2CCCC2)cc1` [CBK263590], with 108%.

For the compound `COc1ccc(N2C(=O)CC(NCCNc3ccc([N+](=O)[O-])cn3)C2=O)cc1` (centres unmarked) [CBK263593], the viability at 28.5 h, 10 µM was determined as 85.3%. For the compound `O=C(COc1ccccc1)Nc1ccccc1CO` [CBK263596], the viability at 28.5 h, 10 µM came out at 97.9%. On to `O=C(O)CCC(NC(=O)c1ccc(Cl)cc1)C(=O)O` (centres unmarked) [CBK263597], for which the viability at 28.5 h, 10 µM was determined as 94.2%. Same read-out and setting: then `O=C(COc1ccc2ccccc2c1)Nc1ccc(Cl)cc1Cl` [CBK263598], with 106%; and `Cc1ccc(OCC(=O)Nc2ccccc2CO)cc1` [CBK263600], with 88.7%; and `COC(=O)CC(C)(C)/C(C)=N/NS(=O)(=O)c1ccc(C)cc1` [CBK263602], with 86.7%. The same measure, in the same setting: then `O=C(O)c1ccc(N2C(=O)c3ccc(Oc4ccc(S(=O)(=O)c5ccc(C(=O)O)cc5)cc4)cc3C2=O)cc1` [CBK263603], with 96.8%.

Consider `O=C(COc1cccc([N+](=O)[O-])c1)Nc1cc(C(=O)O)cc(C(=O)O)c1` [CBK263604], for which the viability at 28.5 h, 10 µM was 114%. With `N=C1NC(=O)/C(=C/c2ccc(OS(=O)(=O)c3ccc4ccccc4c3)cc2)S1` [CBK263605], the viability at 28.5 h, 10 µM amounted to 106%. On the same count and under the same terms, then `O=C(O)c1ccc(S(=O)(=O)c2ccc(Oc3ccc4c(c3)C(=O)N(c3cccc(C(=O)O)c3)C4=O)cc2)cc1` [CBK263608], with 96.7%; and `COc1cc(/C=C2\SC(=N)NC2=O)cc(Br)c1OS(=O)(=O)c1ccc(C)cc1` [CBK263609], with 95.1%. As for `N=C1NC(=O)/C(=C/c2cccc(OCc3cccc4ccccc34)c2)S1` [CBK263610], the viability at 28.5 h, 10 µM was determined as 93.9%.

The same series, now with this note: human, hela cells, % viability, bulk resorufin, single well.
As to `Cc1cc(C)cc(N2C(=O)NC(=O)/C(=C\c3ccccc3Br)C2=O)c1` [CBK263588], the viability at 28.5 h, 10 µM stood at 100%.

(Values after paper PMC12040169 (PLOS Biology, 2025).)
